Source: the kinase profiling compilation of Christmann-Franck et al. (2016)
Each block holds one compound with its values, some of them ahead of it.

How the values were obtained:
Assay in all cases: radiometric filter-binding kinase assay, Kinase HotSpot
Conditions in all cases: compound 0.5 µM; ATP 10 µM
ITK (human) = ITK (human) (UniProt Q08881)
MINK1 (human) = MINK1 (human) (UniProt Q8N4C8)
AKT2 (human) = AKT2 (human) (UniProt P31751)
MAPK14 (human) = MAPK14 (human) (UniProt Q16539)
CDK9 CCNK (human) = CDK9 CCNK (human) (UniProt O75909+P50750)
INSRR (human) = INSRR (human) (UniProt P14616)
SYK (human) = SYK (human) (UniProt P43405)
RAF1 (human) = RAF1 (human) (UniProt P04049)
STK3 (human) = STK3 (human) (UniProt Q13188)
ULK2 (human) = ULK2 (human) (UniProt Q8IYT8)
LTK (human) = LTK (human) (UniProt P29376)
DYRK1A (human) = DYRK1A (human) (UniProt Q13627)
STK10 (human) = STK10 (human) (UniProt O94804)
ERBB4 (human) = ERBB4 (human) (UniProt Q15303)
CDK2 CCNE1 (human) = CDK2 CCNE1 (human) (UniProt P24941+P24864)
NEK4 (human) = NEK4 (human) (UniProt P51957)
TAOK3 (human) = TAOK3 (human) (UniProt Q9H2K8)
CAMK2G (human) = CAMK2G (human) (UniProt Q13555)
CSF1R (human) = CSF1R (human) (UniProt P07333)
BTK (human) = BTK (human) (UniProt Q06187)
NEK9 (human) = NEK9 (human) (UniProt Q8TD19)
PTK6 (human) = PTK6 (human) (UniProt Q13882)
ADRBK1 (human) = ADRBK1 (human) (UniProt P25098)
SRPK3 (human) = SRPK3 (human) (UniProt Q9UPE1)
CAMK1D (human) = CAMK1D (human) (UniProt Q8IU85)
FES (human) = FES (human) (UniProt P07332)
TEK (human) = TEK (human) (UniProt Q02763)
JAK2 JH1 JH2 (human) = JAK2 JH1 JH2 (human) (UniProt O60674)
MYLK (human) = MYLK (human) (UniProt Q15746)
CHUK (human) = CHUK (human) (UniProt O15111)
FGFR4 (human) = FGFR4 (human) (UniProt P22455)
DAPK2 (human) = DAPK2 (human) (UniProt Q9UIK4)
ACVRL1 (human) = ACVRL1 (human) (UniProt P37023)
STK4 (human) = STK4 (human) (UniProt Q13043)
CDK7 CCNH MNAT1 (human) = CDK7 CCNH MNAT1 (human) (UniProt P50613+P51948+P51946)
MAPK11 (human) = MAPK11 (human) (UniProt Q15759)
PIM3 (human) = PIM3 (human) (UniProt Q86V86)
DYRK2 (human) = DYRK2 (human) (UniProt Q92630)
AXL (human) = AXL (human) (UniProt P30530)
DSTYK (human) = DSTYK (human) (UniProt Q6XUX3)
PAK7 (human) = PAK7 (human) (UniProt Q9P286)
MST4 (human) = MST4 (human) (UniProt Q9P289)
Chain of MST4 (human) (Q9P289 whole entry, looked up): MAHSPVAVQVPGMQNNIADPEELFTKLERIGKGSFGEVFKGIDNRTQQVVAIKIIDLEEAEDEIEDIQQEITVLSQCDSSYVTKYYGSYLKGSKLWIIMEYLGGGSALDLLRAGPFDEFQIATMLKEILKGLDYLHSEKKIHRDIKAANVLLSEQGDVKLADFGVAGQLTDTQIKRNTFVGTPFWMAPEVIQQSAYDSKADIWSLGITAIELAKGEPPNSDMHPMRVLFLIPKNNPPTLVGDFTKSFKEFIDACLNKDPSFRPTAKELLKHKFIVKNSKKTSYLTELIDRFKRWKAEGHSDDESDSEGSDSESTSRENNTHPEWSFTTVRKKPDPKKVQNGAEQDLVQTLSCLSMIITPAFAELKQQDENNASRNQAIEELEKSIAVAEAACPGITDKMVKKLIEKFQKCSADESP

Chain of CHUK (human) (O15111 whole entry, looked up): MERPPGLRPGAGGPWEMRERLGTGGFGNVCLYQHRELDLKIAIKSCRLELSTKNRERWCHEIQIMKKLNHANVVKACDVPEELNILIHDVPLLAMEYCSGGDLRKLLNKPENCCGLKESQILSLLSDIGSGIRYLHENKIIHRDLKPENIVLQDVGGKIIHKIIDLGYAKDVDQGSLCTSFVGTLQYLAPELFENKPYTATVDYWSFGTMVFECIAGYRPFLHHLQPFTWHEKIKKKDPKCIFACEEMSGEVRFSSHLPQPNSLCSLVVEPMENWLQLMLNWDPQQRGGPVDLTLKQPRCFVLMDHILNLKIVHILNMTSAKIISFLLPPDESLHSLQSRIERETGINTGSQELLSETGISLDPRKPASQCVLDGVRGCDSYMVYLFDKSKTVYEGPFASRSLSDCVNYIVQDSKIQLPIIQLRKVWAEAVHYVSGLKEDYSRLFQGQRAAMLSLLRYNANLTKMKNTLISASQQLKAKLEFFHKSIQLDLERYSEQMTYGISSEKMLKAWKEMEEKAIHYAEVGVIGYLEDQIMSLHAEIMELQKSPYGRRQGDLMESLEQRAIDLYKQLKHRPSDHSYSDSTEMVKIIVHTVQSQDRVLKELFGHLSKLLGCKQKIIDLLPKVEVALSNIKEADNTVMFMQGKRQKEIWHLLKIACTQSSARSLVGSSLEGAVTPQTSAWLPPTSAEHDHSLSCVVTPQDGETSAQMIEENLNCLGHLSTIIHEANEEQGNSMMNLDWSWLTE
Chain of TAOK3 (human) (Q9H2K8 whole entry, looked up): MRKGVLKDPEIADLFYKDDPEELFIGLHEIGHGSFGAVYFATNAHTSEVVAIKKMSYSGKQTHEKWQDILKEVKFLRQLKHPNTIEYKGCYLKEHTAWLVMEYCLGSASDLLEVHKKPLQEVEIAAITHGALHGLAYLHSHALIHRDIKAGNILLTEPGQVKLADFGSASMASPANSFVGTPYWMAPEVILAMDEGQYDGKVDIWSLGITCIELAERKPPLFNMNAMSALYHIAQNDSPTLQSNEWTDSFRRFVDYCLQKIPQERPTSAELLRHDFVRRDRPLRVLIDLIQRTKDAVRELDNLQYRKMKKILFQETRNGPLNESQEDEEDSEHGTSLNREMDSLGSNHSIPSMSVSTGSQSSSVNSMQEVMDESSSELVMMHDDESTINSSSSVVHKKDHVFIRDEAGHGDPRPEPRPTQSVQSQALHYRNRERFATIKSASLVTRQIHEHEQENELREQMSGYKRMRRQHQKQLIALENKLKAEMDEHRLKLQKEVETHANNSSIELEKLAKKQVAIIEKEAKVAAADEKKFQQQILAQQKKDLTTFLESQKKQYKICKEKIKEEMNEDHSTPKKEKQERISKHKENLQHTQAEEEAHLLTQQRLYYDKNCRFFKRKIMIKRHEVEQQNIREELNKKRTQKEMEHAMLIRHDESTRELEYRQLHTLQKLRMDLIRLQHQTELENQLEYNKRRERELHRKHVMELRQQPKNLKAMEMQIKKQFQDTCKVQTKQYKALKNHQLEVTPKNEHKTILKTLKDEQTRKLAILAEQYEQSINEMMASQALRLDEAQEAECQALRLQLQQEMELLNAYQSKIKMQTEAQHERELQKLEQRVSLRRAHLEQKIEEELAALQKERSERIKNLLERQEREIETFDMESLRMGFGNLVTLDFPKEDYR
Chain of DAPK2 (human) (Q9UIK4 whole entry, looked up): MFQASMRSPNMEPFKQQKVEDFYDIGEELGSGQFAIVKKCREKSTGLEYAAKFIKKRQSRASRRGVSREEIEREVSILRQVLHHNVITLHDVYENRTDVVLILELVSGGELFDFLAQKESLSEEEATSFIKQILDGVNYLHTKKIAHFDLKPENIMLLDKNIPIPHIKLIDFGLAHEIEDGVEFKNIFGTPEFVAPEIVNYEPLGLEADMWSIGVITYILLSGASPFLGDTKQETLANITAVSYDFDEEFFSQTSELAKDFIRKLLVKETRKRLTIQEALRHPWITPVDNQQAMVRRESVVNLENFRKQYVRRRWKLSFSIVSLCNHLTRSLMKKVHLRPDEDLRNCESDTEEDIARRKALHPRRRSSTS
Chain of MINK1 (human) (Q8N4C8 whole entry, looked up): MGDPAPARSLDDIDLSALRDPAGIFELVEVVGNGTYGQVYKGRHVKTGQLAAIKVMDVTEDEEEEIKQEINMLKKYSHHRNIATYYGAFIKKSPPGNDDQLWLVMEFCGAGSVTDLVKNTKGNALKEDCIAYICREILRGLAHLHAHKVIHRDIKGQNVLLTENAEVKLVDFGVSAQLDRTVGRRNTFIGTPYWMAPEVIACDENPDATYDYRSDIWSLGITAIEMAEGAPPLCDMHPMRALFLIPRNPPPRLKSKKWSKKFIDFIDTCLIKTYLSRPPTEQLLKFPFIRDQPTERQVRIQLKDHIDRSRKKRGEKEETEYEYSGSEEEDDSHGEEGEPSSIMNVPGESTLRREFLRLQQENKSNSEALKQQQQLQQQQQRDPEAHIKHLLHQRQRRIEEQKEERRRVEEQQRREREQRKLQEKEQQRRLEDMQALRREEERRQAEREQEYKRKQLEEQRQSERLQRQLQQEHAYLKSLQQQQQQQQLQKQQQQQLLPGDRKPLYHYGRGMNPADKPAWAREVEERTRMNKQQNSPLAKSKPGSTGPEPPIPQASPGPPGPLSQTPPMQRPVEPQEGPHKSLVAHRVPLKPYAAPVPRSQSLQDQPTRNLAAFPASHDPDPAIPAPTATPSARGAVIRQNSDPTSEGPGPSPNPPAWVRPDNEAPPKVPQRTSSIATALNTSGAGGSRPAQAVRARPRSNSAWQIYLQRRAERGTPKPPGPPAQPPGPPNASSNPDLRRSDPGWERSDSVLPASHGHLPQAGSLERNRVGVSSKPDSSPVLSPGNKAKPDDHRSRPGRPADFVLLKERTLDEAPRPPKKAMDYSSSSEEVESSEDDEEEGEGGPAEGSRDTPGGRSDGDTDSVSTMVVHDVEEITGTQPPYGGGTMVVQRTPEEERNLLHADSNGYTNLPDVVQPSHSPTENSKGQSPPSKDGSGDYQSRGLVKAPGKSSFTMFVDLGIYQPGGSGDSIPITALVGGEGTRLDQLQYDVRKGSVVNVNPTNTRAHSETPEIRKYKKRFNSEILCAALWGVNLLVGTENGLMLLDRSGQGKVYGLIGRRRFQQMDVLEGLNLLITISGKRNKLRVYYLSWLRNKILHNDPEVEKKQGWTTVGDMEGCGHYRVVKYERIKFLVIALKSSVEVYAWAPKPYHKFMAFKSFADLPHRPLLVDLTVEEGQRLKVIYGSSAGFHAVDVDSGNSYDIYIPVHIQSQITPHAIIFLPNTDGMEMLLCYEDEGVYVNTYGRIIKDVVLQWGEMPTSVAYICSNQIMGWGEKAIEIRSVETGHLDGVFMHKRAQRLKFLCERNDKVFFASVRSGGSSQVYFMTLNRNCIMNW
Chain of CDK9 CCNK (human) (O75909 whole entry, looked up): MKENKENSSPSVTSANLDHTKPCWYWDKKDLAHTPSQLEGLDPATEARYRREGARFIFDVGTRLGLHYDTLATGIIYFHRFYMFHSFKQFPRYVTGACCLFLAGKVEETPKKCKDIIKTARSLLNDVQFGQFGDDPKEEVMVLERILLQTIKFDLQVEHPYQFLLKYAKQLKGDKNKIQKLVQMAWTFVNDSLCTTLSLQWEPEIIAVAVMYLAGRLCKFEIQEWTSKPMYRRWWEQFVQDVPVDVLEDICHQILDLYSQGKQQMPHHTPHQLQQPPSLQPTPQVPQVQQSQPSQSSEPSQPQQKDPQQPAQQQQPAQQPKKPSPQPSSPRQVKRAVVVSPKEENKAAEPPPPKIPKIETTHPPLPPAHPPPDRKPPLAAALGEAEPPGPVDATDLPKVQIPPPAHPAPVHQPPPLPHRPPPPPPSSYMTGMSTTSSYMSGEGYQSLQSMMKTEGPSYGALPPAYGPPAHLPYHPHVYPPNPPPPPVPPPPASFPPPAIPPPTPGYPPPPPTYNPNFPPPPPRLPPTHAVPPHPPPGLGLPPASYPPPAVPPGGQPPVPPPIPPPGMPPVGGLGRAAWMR
Chain of CDK9 CCNK (human) (P50750 whole entry, looked up): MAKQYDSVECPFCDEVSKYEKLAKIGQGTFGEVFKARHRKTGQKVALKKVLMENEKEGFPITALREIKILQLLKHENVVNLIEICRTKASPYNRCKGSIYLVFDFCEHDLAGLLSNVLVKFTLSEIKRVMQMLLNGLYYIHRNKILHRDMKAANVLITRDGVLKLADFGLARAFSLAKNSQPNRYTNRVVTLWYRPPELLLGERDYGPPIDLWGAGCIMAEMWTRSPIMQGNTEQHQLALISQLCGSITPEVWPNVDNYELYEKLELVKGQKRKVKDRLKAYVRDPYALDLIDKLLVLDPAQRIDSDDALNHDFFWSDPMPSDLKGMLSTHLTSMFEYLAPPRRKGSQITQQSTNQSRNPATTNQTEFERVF

Compound: O=C1Nc2ccccc2/C1=C\c1c(Cl)[nH]c2ccccc12
- residual activity (ITK (human)): 104%
- residual activity (MINK1 (human)): 94.9%
- residual activity (AKT2 (human)): 96.8%
- residual activity (MAPK14 (human)): 101%
- residual activity (CDK9 CCNK (human)): 98.3%
- residual activity (INSRR (human)): 93.7%
- residual activity (SYK (human)): 102%
- residual activity (RAF1 (human)): 89.9%
- residual activity (STK3 (human)): 89.1%
- residual activity (ULK2 (human)): 99.7%
- residual activity (LTK (human)): 95.1%
- residual activity (DYRK1A (human)): 107%
- residual activity (STK10 (human)): 90.9%
- residual activity (ERBB4 (human)): 103%
- residual activity (CDK2 CCNE1 (human)): 79.9%
- residual activity (NEK4 (human)): 97.7%
- residual activity (TAOK3 (human)): 93.9%
- residual activity (CAMK2G (human)): 103%
- residual activity (CSF1R (human)): 97.2%
- residual activity (BTK (human)): 94.6%
- residual activity (NEK9 (human)): 94.2%
- residual activity (PTK6 (human)): 76.9%
- residual activity (ADRBK1 (human)): 98.9%
- residual activity (SRPK3 (human)): 97.1%
- residual activity (CAMK1D (human)): 102%
- residual activity (FES (human)): 96.6%
- residual activity (TEK (human)): 97.1%
- residual activity (JAK2 JH1 JH2 (human)): 103%
- residual activity (MYLK (human)): 90.4%
- residual activity (CHUK (human)): 94.2%
- residual activity (FGFR4 (human)): 96.9%
- residual activity (DAPK2 (human)): 96.8%
- residual activity (ACVRL1 (human)): 99.8%
- residual activity (STK4 (human)): 91%
- residual activity (CDK7 CCNH MNAT1 (human)): 99.7%
- residual activity (MAPK11 (human)): 94.5%
- residual activity (PIM3 (human)): 100%
- residual activity (DYRK2 (human)): 103%
- residual activity (AXL (human)): 97.8%
- residual activity (DSTYK (human)): 95.7%

- residual activity (ITK (human)): 46.6%
- residual activity (PAK7 (human)): 104%
- residual activity (MINK1 (human)): 47.8%
- residual activity (MST4 (human)): 122%
- residual activity (AKT2 (human)): 101%
- residual activity (MAPK14 (human)): 105%
- residual activity (CDK9 CCNK (human)): 37.5%
- residual activity (INSRR (human)): 81%
- residual activity (SYK (human)): 45.7%
- residual activity (RAF1 (human)): 103%
- residual activity (STK3 (human)): 20.5%
- residual activity (ULK2 (human)): 94%
- residual activity (LTK (human)): 89.3%
- residual activity (DYRK1A (human)): 101%
- residual activity (STK10 (human)): 52.8%
- residual activity (ERBB4 (human)): 96.8%
- residual activity (CDK2 CCNE1 (human)): 15.4%
- residual activity (NEK4 (human)): 96.7%
- residual activity (TAOK3 (human)): 56.9%
- residual activity (CAMK2G (human)): 28.3%
- residual activity (CSF1R (human)): 74.4%
- residual activity (BTK (human)): 13.1%
- residual activity (PTK6 (human)): 89.3%
- residual activity (ADRBK1 (human)): 97.3%
- residual activity (SRPK3 (human)): 96.4%
- residual activity (FES (human)): 96%
- residual activity (TEK (human)): 96.7%
- residual activity (JAK2 JH1 JH2 (human)): 93.8%
- residual activity (MYLK (human)): 45%
- residual activity (CHUK (human)): 104%
- residual activity (FGFR4 (human)): 79.6%
- residual activity (DAPK2 (human)): 91%
- residual activity (ACVRL1 (human)): 103%
- residual activity (STK4 (human)): 22.5%
- residual activity (CDK7 CCNH MNAT1 (human)): 79.1%
- residual activity (MAPK11 (human)): 99.6%
- residual activity (PIM3 (human)): 73.2%
- residual activity (AXL (human)): 57.7%
- residual activity (DSTYK (human)): 102%
Compound: O=C1Nc2cc(Br)ccc2/C1=C1/Nc2ccccc2/C1=N\O
- residual activity (NEK9 (human)): 96.3%

Compound: Nc1nc(Nc2ccc(S(N)(=O)=O)cc2)nn1C(=O)c1c(F)cccc1F
- residual activity (ITK (human)): 105%
- residual activity (PAK7 (human)): 85.4%
- residual activity (MINK1 (human)): 98.1%
- residual activity (MST4 (human)): 64.2%
- residual activity (AKT2 (human)): 107%
- residual activity (MAPK14 (human)): 97.8%
- residual activity (CDK9 CCNK (human)): 27.4%
- residual activity (INSRR (human)): 93.8%
- residual activity (SYK (human)): 61.6%
- residual activity (RAF1 (human)): 95.7%
- residual activity (STK3 (human)): 34.3%
- residual activity (ULK2 (human)): 102%
- residual activity (LTK (human)): 85.8%
- residual activity (DYRK1A (human)): 101%
- residual activity (STK10 (human)): 17%
- residual activity (ERBB4 (human)): 110%
- residual activity (CDK2 CCNE1 (human)): 7.15%
- residual activity (NEK4 (human)): 79.2%
- residual activity (TAOK3 (human)): 39.9%
- residual activity (CAMK2G (human)): 104%
- residual activity (CSF1R (human)): 49.2%
- residual activity (BTK (human)): 87.1%
- residual activity (NEK9 (human)): 82.2%
- residual activity (PTK6 (human)): 83.9%
- residual activity (ADRBK1 (human)): 97.3%
- residual activity (SRPK3 (human)): 86.2%
- residual activity (CAMK1D (human)): 97.7%
- residual activity (TEK (human)): 84.2%
- residual activity (JAK2 JH1 JH2 (human)): 19.2%
- residual activity (MYLK (human)): 80%
- residual activity (CHUK (human)): 99%
- residual activity (FGFR4 (human)): 90.3%
- residual activity (DAPK2 (human)): 107%
- residual activity (ACVRL1 (human)): 88.5%
- residual activity (STK4 (human)): 19.9%
- residual activity (CDK7 CCNH MNAT1 (human)): 81.1%
- residual activity (MAPK11 (human)): 94%
- residual activity (PIM3 (human)): 102%
- residual activity (DYRK2 (human)): 112%
- residual activity (AXL (human)): 94.2%
- residual activity (DSTYK (human)): 86.2%

Compound: O=C1Cc2c([nH]c3ccc([N+](=O)[O-])cc23)-c2ccccc2N1
- residual activity (ITK (human)): 97.1%
- residual activity (PAK7 (human)): 71.4%
- residual activity (MINK1 (human)): 20.4%
- residual activity (MST4 (human)): 78.6%
- residual activity (AKT2 (human)): 101%
- residual activity (MAPK14 (human)): 92.1%
- residual activity (CDK9 CCNK (human)): 24.2%
- residual activity (INSRR (human)): 94.5%
- residual activity (SYK (human)): 53.9%
- residual activity (RAF1 (human)): 114%
- residual activity (STK3 (human)): 70.3%
- residual activity (ULK2 (human)): 72.7%
- residual activity (LTK (human)): 93.9%
- residual activity (DYRK1A (human)): 86.2%
- residual activity (STK10 (human)): 80.4%
- residual activity (ERBB4 (human)): 87.3%
- residual activity (CDK2 CCNE1 (human)): 19.6%
- residual activity (NEK4 (human)): 109%
- residual activity (TAOK3 (human)): 76.7%
- residual activity (CAMK2G (human)): 94.5%
- residual activity (CSF1R (human)): 51%
- residual activity (BTK (human)): 98.2%
- residual activity (NEK9 (human)): 99.3%
- residual activity (PTK6 (human)): 92.7%
- residual activity (ADRBK1 (human)): 91.8%
- residual activity (SRPK3 (human)): 92.7%
- residual activity (FES (human)): 46.3%
- residual activity (TEK (human)): 92.1%
- residual activity (JAK2 JH1 JH2 (human)): 103%
- residual activity (MYLK (human)): 88.8%
- residual activity (CHUK (human)): 103%
- residual activity (FGFR4 (human)): 90.6%
- residual activity (DAPK2 (human)): 97.2%
- residual activity (ACVRL1 (human)): 76.2%
- residual activity (STK4 (human)): 52.3%
- residual activity (CDK7 CCNH MNAT1 (human)): 99.9%
- residual activity (MAPK11 (human)): 102%
- residual activity (PIM3 (human)): 62.3%
- residual activity (DYRK2 (human)): 72%
- residual activity (AXL (human)): 100%
- residual activity (DSTYK (human)): 90%

Compound: CS(=O)c1ccc(-c2nc(-c3ccc(F)cc3)c(-c3ccncc3)[nH]2)cc1 (stereo not drawn)
- residual activity (ITK (human)): 97%
- residual activity (PAK7 (human)): 104%
- residual activity (MINK1 (human)): 107%
- residual activity (MST4 (human)): 96.8%
- residual activity (AKT2 (human)): 96.8%
- residual activity (CDK9 CCNK (human)): 98.6%
- residual activity (INSRR (human)): 100%
- residual activity (SYK (human)): 98%
- residual activity (RAF1 (human)): 41.1%
- residual activity (STK3 (human)): 102%
- residual activity (ULK2 (human)): 83.5%
- residual activity (LTK (human)): 101%
- residual activity (DYRK1A (human)): 95.6%
- residual activity (STK10 (human)): 89.1%
- residual activity (ERBB4 (human)): 66.8%
- residual activity (CDK2 CCNE1 (human)): 93.1%
- residual activity (NEK4 (human)): 98.2%
- residual activity (TAOK3 (human)): 103%
- residual activity (CAMK2G (human)): 82.2%
- residual activity (CSF1R (human)): 95.5%
- residual activity (BTK (human)): 97.2%
- residual activity (NEK9 (human)): 99.1%
- residual activity (PTK6 (human)): 54.2%
- residual activity (ADRBK1 (human)): 101%
- residual activity (SRPK3 (human)): 99.4%
- residual activity (CAMK1D (human)): 105%
- residual activity (FES (human)): 97.3%
- residual activity (TEK (human)): 94.5%
- residual activity (JAK2 JH1 JH2 (human)): 99.5%
- residual activity (MYLK (human)): 101%
- residual activity (CHUK (human)): 100%
- residual activity (FGFR4 (human)): 73.8%
- residual activity (DAPK2 (human)): 102%
- residual activity (ACVRL1 (human)): 97.7%
- residual activity (STK4 (human)): 101%
- residual activity (CDK7 CCNH MNAT1 (human)): 96.8%
- residual activity (MAPK11 (human)): 68.9%
- residual activity (PIM3 (human)): 98.1%
- residual activity (DYRK2 (human)): 98.7%
- residual activity (AXL (human)): 101%
- residual activity (DSTYK (human)): 100%
